Data set [1] has as its target HDAC2 (Homo sapiens (Human), UniProt Q92769). Kind of data set: HDAC enzyme assay, HDAC2. To be noted: 24 hours pre-incubation with enzyme; read-out: IC50 (nM) HDAC2. The data set is classed as biochemical.
Data set [2] relates to human peripheral blood lymphocytes (HPBL). Kind of data set: Micronucleus formation assay. The note with it: In vitro tox. The class given is cell-based. The method, then:
Genotoxicity was further evaluated by micronucleus formation assay in human peripheral blood lymphocytes (HPBL). HPBL were obtained from healthy donors and exposed to Compound 003 at […] for 4 hours with or without S9 activation. The cells were washed with PBS and incubated in complete medium with 6 μg/ml cytocholasin B for 24 hours. The cells were then lysed, fixed, and mounted on microscope slides. The number of mononucleated, binucleated, and micronucleated cells was counted under blinded conditions.

For data set [3], the system named is fetal β-like globin (HbG, γ). Description: Fetal globin induction assay in CD34+ cells isolated from human bone marrow. The data set is classed as cell-based. On the procedure: CD34+ cells isolated from human bone marrow were cultured in vitro using a method described by Bradner J E (Proc Natl Acad Sci USA. 2010 Jul. 13; 107(28):12617-22), which consists of a 7 day expansion phase in media that supports differentiation of cells towards the erythroid lineage followed by a differentiation phase for 3 days where erythroid cell development continues. At the end of the differentiation period these cells are primarily late erythroblasts. mRNA levels were determined by quantitative real time PCR using primer/probe sets designed to adult major β-globin (β), adult minor β-globin (δ), fetal β-like globin (HbG, γ), and embryonic β-like globin (ε). Protein levels were determined by flow cytometry using fluorescent antibodies against fetal hemoglobin (HbF) or adult hemoglobin (HbA).
In the experiment shown in FIG. 3, cells were differentiated in the presence of vehicle (DMSO) 0.3, 1 and 3 μM of Compound A, and of 0.3, 1, and 3 μM of Compound 003. In the experiment shown in FIG. 6, cells were differentiated in the presence of vehicle (DMSO) 0.3, 1 and 3 μM of Compound A, and of 0.3, 1, and 3 μM of Compound 005. Globin mRNA levels were determined at day 3 of differentiation.

Structures are written as SMILES.

Sequence of HDAC2 (Q92769 whole entry): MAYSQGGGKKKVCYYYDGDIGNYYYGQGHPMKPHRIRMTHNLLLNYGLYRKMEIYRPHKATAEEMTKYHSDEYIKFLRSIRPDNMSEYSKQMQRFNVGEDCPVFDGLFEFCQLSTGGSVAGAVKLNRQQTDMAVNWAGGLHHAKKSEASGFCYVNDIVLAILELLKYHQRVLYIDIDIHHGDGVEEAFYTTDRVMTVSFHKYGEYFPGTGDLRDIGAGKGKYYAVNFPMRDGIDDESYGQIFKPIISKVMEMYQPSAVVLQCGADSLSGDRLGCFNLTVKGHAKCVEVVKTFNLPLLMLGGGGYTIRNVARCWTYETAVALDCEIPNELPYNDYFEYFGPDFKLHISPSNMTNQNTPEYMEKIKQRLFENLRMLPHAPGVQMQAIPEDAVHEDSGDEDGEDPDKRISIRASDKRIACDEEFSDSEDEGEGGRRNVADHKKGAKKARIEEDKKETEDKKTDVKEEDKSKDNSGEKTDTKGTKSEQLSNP

For the molecule `CN1CCN(C(=O)N2CCC(Nc3ccc(C(=O)Nc4cc(-c5cccs5)ccc4N)cc3)CC2)CC1` [Compound 005], in data set [1], the IC50 turned out to be 4.9 nM. The MN entry in data set [2] is listed as “Neg”. Also, the “Cell based assay potency” value in data set [3] (lowest concentration to achieve a 2 fold increase in fetal globin gene expression over baseline) came out at 1000 nM. Also, the “induction of % HbG” value in data set [3] (primary erythroid progenitors, 3 days differentiation (FIG. 6)) is “equivalent dose and time-dependent induction”.

The values above are taken from patent publication US9790180B2, “Piperidine derivatives as HDAC1/2 inhibitors” (Acetylon Pharmaceuticals, Inc., priority 2014, dated 2017).
